According to PubChem BioAssay AID687032 (Broad Institute, 2013):
Records with an inconclusive call do not appear.

What follows are compounds tested on IOSE-T80 viability, CellTiterGlo ATP luminescence, 96 h (assay: cytotoxicity in IOSE-T80 ovarian epithelial cells, dose response, selectivity assay for PAX8 inhibitor project, cell-based, cherry-pick (AID 687032)).
With `COc1ccc(NC(=O)Nc2ccc3c(c2)C(=O)N([C@@H](C)CO)C[C@@H](C)[C@@H](CN(C)CC2CCCCC2)OCCCC[C@@H](C)O3)cc1` the AC50 was < 0.26 µM. `CCOC(=O)c1c(-c2ccc(F)cc2)csc1NC(=O)CN1C(=O)NC2(CCCCC2C)C1=O` (configuration not stated) showed an AC50 of 9.07 µM. With `C[C@H](CO)N1C[C@H](C)[C@H](CN(C)S(=O)(=O)c2ccc(Cl)cc2)OCCCC[C@H](C)Oc2ccc(NC(=O)Nc3ccc(C(F)(F)F)cc3)cc2C1=O` the AC50 was < 0.26 µM. With `C[C@@H]1CN([C@H](C)CO)C(=O)c2cc(NC(=O)Nc3ccc(F)cc3)ccc2O[C@@H](C)CCCCO[C@@H]1CN(C)Cc1ccc2c(c1)OCO2` the AC50 was < 0.26 µM. In the case of `C[C@@H]1CN([C@@H](C)CO)C(=O)Cc2cc(NS(=O)(=O)c3ccc(Cl)cc3)ccc2O[C@H]1CN(C)Cc1ccc(Oc2ccccc2)cc1`, the AC50 is reported as < 0.26 µM. `Cc1nnc(N/N=C/c2cc(C)n(-c3ccc(F)cc3)c2C)n1N` gave an AC50 of 10.2 µM. In the case of `CCOC(=O)Nc1ccc2c(c1)N(C(=O)CCN(CC)CC)c1ccccc1S2=O` (configuration not stated), the AC50 is reported as < 0.26 µM. For `COc1ccc(S(=O)(=O)Nc2ccc3c(c2)CC(=O)N([C@@H](C)CO)C[C@@H](C)[C@@H](CN(C)Cc2ccc(-c4ccccc4)cc2)O3)cc1`, the AC50 was < 0.26 µM. Compound `COc1ccccc1C(=O)Nc1nc2ccccc2[nH]1` has an AC50 of 9.81 µM. For `COc1cc(/C=N/O)ccc1OCc1ccc(C(=O)O)cc1`, the AC50 was 9.95 µM. For `CC(=O)[C@@]1(O)Cc2c(O)c3c(c(O)c2[C@H](O[C@H]2C[C@H](N)[C@H](O)[C@H](C)O2)C1)C(=O)c1ccccc1C3=O`, the AC50 was 8.8 µM. For `O=C1CN(C(=O)Cn2ncc(Cl)c(Cl)c2=O)c2ccccc2N1`, the AC50 was < 0.26 µM. `C[C@H](CO)N1C[C@H](C)[C@@H](CN(C)C(=O)Nc2ccnc(N3CCOCC3)c2)OCc2cnnn2CCCC1=O` was tested, and the AC50 was < 0.26 µM. `O=c1cc(-c2ccccc2)oc2ccc3ccccc3c12` was tested, and the AC50 was < 0.26 µM. In the case of `C[C@@H]1CCCCO[C@@H](CN(C)Cc2ccc(C(F)(F)F)cc2)[C@@H](C)CN([C@@H](C)CO)C(=O)c2cc(NS(=O)(=O)c3ccc(F)cc3)ccc2O1`, the AC50 is reported as < 0.235 µM. `C[C@@H]1CCCCO[C@H](CN(C)Cc2ccc(C(F)(F)F)cc2)[C@H](C)CN([C@@H](C)CO)C(=O)c2cc(NS(=O)(=O)c3cccs3)ccc2O1` gave an AC50 of 33.5 µM. With `O=C(NC12CC3CC(CC(C3)C1)C2)c1ccc([N+](=O)[O-])o1` the AC50 was < 0.26 µM. With `O=C(C[C@H]1CC[C@H]2[C@@H](COC[C@@H](O)CN2Cc2ccc(Oc3ccccc3)cc2)O1)N1CCCCC1` the AC50 was < 0.26 µM. Work on `COc1ccc(CC2C(=O)NC(C)C(=O)N(C)C3Cc4ccc(cc4)Oc4cc(ccc4O)CC(C(=O)NC(C)C(=O)NC(C)C(=O)N2C)N(C)C3=O)cc1` (configuration not stated) yielded an AC50 of 27.8 µM. For `CCN1CCN(c2nc(-c3cccs3)nc3ccccc23)CC1`, the AC50 was 10.4 µM. With `Cc1ccc(C(=O)N/C(=C\c2ccc(-c3ccc(Br)cc3)o2)C(=O)NCCCN(C)C)cc1` the AC50 was 9.4 µM. With `C[C@@H]1CCCCO[C@H](CN(C)Cc2ccc(C(F)(F)F)cc2)[C@H](C)CN([C@H](C)CO)C(=O)c2cc(NS(=O)(=O)c3cccs3)ccc2O1` the AC50 was < 0.26 µM. In the case of `C#CCN(C[C@@H]1[C@@H](OC(=O)NCC2CCCCC2)[C@@H](OC(=O)NCC2CCCCC2)Cn2c(=O)ccc(=O)n21)S(=O)(=O)c1ccc(C)cc1`, the AC50 is reported as < 0.26 µM. In the case of `O=C(NCc1ccco1)C1CCCN(S(=O)(=O)c2ccc(Br)cc2)C1` (configuration not stated), the AC50 is reported as < 0.26 µM. In the case of `C[C@@H]1CCCCO[C@H](CN(C)C(=O)C2CCCCC2)[C@@H](C)CN([C@@H](C)CO)C(=O)c2cc(NC(=O)Nc3ccc(F)cc3)ccc2O1`, the AC50 is reported as < 0.26 µM. `C[C@@H]1CN([C@@H](C)CO)C(=O)Cc2cc(NC(=O)NC3CCCCC3)ccc2O[C@@H]1CN(C)Cc1ccc(-c2ccccc2)cc1` showed an AC50 of 27.8 µM. `Cc1ccc(Cl)cc1N1CCN(C(=O)c2noc(C)c2[N+](=O)[O-])CC1` was tested, and the AC50 was < 0.26 µM. For `COc1cccc(-c2ccc([C@H]3[C@@H](CO)N(C(=O)Cc4ccccc4)[C@H]3C#N)cc2)c1`, the AC50 was < 0.26 µM. With `CC(C)(C)[C@H](N)C(=O)N[C@H]1CCC2C3CC=C4C[C@@H](O)CC[C@]4(C)C3CC[C@@]21C` (some centres not stated) the AC50 was < 0.26 µM. In the case of `N#Cc1ccc(-c2ccc(C3[C@@H]4CN(C(=O)C5CC5)C[C@H]3N4)cc2)cc1` (some centres not stated), the AC50 is reported as < 0.26 µM. With `C[C@@H]1CCCCO[C@H](CN(C)C(=O)Cc2ccccc2)[C@@H](C)CN([C@@H](C)CO)C(=O)c2cc(NC(=O)Nc3ccc(C(F)(F)F)cc3)ccc2O1` the AC50 was < 0.26 µM. With `Cn1ncc2c(O/N=C(\N)c3ccc(C(F)(F)F)cc3)ncnc21` the AC50 was < 0.26 µM. For `O=C(Cc1nnc(NC(=O)c2ccccc2)s1)N/N=C/c1ccco1`, the AC50 was < 0.26 µM. For `O=C(O)c1cccc(COc2ccc3c(c2)CCC3)c1`, the AC50 was < 0.26 µM. Compound `COc1cc(OC)c2c(-c3cccc(-c4ccc(OC)c(F)c4)c3)cc(=O)oc2c1` has an AC50 of 10.7 µM. Work on `O=C(Nc1cccc(NC(=O)c2cccs2)c1)c1ccc([N+](=O)[O-])o1` yielded an AC50 of 8.62 µM. In the case of `Cc1noc(C)c1S(=O)(=O)Nc1ccc2c(c1)C(=O)N([C@H](C)CO)C[C@H](C)[C@@H](CN(C)C(=O)Nc1ccc(C(F)(F)F)cc1)OCCCC[C@H](C)O2`, the AC50 is reported as 23.3 µM. With `Cc1ccc2c(c1)c1c3n2CCN(CC(N)=O)C3CCC1` (configuration not stated) the AC50 was 10.2 µM. `C[C@@H]1CCCCO[C@@H](CN(C)C(=O)Nc2cccc3ccccc23)[C@H](C)CN([C@H](C)CO)C(=O)c2cc(NS(=O)(=O)c3ccccc3)ccc2O1` was tested, and the AC50 was < 0.26 µM. With `C[C@@H]1CN([C@H](C)CO)C(=O)c2cc(NS(=O)(=O)c3ccc(Cl)cc3)ccc2O[C@@H](C)CCCCO[C@@H]1CN(C)Cc1ccccc1` the AC50 was < 0.26 µM. Work on `C(=Cc1cnc2ccccc2n1)c1ccc2c(c1)OCO2` yielded an AC50 of 7.89 µM. Work on `Cc1ccc(S(=O)(=O)N(C)C[C@@H]2Oc3cc(C#Cc4ccncc4)ccc3S(=O)(=O)N([C@H](C)CO)C[C@@H]2C)cc1` yielded an AC50 of 24.2 µM. `COc1ccccc1C#Cc1ccc2c(c1)O[C@H](CN(C)Cc1cccnc1)[C@H](C)CN([C@@H](C)CO)S2(=O)=O` was tested, and the AC50 was 3.05 µM. `COc1ccc2c(COC(=O)CNC(=O)C34CC5CC(CC(C5)C3)C4)cc(=O)oc2c1` was tested, and the AC50 was < 0.26 µM. `C[C@H](CO)N1C[C@H](C)[C@H](CN(C)S(=O)(=O)c2ccc(Cl)cc2)OCCCC[C@H](C)Oc2ccc(NS(=O)(=O)c3ccc(F)cc3)cc2C1=O` was tested, and the AC50 was < 0.26 µM. `COc1ccc(-c2nc3c(c(SCC(=O)Nc4cccc(O)c4)n2)Cc2c(CO)cnc(C)c2O3)cc1` gave an AC50 of 8.55 µM. In the case of `O=[N+]([O-])c1cccnc1S(=O)(=O)c1ccccc1`, the AC50 is reported as < 0.26 µM. In the case of `CCC(c1nnnn1Cc1ccccc1)N1CCC(n2c(=O)[nH]c3ccccc32)CC1` (configuration not stated), the AC50 is reported as < 0.26 µM. With `COc1ccc(S(=O)(=O)Nc2ccc3c(c2)C(=O)N([C@@H](C)CO)C[C@H](C)[C@@H](CN(C)Cc2ccc(C(F)(F)F)cc2)OCCCC[C@H](C)O3)cc1` the AC50 was < 0.26 µM. With `O=S(=O)(NCC1CCCO1)c1cnc(Cl)c(Br)c1` (configuration not stated) the AC50 was < 0.26 µM. `C[C@@H]1CN([C@H](C)CO)C(=O)c2cc(NC(=O)Nc3ccc(C(F)(F)F)cc3)ccc2O[C@@H](C)CCCCO[C@H]1CN(C)Cc1ccccc1` was tested, and the AC50 was < 0.26 µM. In the case of `O=C(CCC(=O)c1ccccc1)NCCc1c[nH]c2ccccc12`, the AC50 is reported as < 0.26 µM. For `Cc1ccc(NC(=O)Cn2ncc(Cl)c(Cl)c2=O)cc1S(=O)(=O)N1CCCCC1`, the AC50 was < 0.26 µM. In the case of `C[C@H](CO)N1C[C@H](C)[C@@H](CN(C)CC2CCCCC2)Oc2c(NC(=O)CCCCCC(=O)Nc3ccccc3N)cccc2C1=O`, the AC50 is reported as < 0.26 µM. `Cc1ccc(S(=O)(=O)N(C)C[C@@H]2Oc3cc(C#Cc4ccncc4)ccc3S(=O)(=O)N([C@H](C)CO)C[C@H]2C)cc1` gave an AC50 of 3.05 µM. With `C[C@@H]1CCCCO[C@@H](CN(C)Cc2ccc(Cl)c(Cl)c2)[C@H](C)CN([C@H](C)CO)C(=O)c2cc(NC(=O)Nc3ccc(C(F)(F)F)cc3)ccc2O1` the AC50 was 35.6 µM. With `Cn1c(SCC(=O)c2ccccc2)nnc1-c1ccccn1` the AC50 was < 0.26 µM.
